Results from paper PMC11251039, “Harnessing cholesterol uptake of malaria parasites for therapeutic applications” (EMBO Molecular Medicine, 2024).
“And” between values parts separate entries of the source, which are not always exact repeats. Equal entries are not always repeated.

Legend:
[1] = system: human embryonic kidney cells (HEK293); assay: Human embryonic kidney cell viability assay (MTT); type: cell-based; conditions: Homo sapiens, HEK293, 96 h, read-out: IC50, human embryonic kidney cell inhibition (viability)
Method in brief: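 HEK293 cells, 5,000 per well, exposed to serially diluted compound for 96 hours; 10 µg/mL cycloheximide as background control. Viability by MTT (0.45 mg/mL, 2 h), SDS solubilisation, absorbance at 570 nm.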

[2] = system: human foreskin fibroblasts (HFF); assay: Human foreskin fibroblast growth inhibition assay (SYBR Safe); type: cell-based; conditions: Homo sapiens, Fibroblast; 72 h, HFF; read-out: IC50, human fibroblast growth inhibition
Description: HFF cell growth inhibition assays commenced by adding 5000 cells to each well of a 96-well plate. 10 µg/mL cycloheximide was used as a no-growth control. DNA replication (indicating growth) was measured at the specified time using SYBR Safe DNA Gel Stain (Invitrogen 33102) and a fluorescence microplate reader. […]
Human Foreskin Fibroblast Growth Inhibition Assays:
The HFF cell line was maintained under routine culture conditions in DMEM containing 3.7 g/L NaHCO3 supplemented with 10% v/v newborn calf serum (NCS), 50 units/mL penicillin, 50 μg/mL streptomycin, 10 μg/mL gentamicin, 0.25 μg/mL amphotericin B, and 0.2 mM L-glutamine at 37 °C in a humidified 5% CO2 incubator. […]
HFF cells were detached from a flask using 0.25% Trypsin with 0.2 g/L EDTA (Sigma T4049) and washed with culture media. Cells were incubated with a serial dilution of each compound, or media/DMSO alone. Cycloheximide at 10 µg/mL was used as a positive control to determine background fluorescence. Approximately 5 000 cells were seeded in each well. Plates were incubated at 37 °C for 72 hours (until reaching confluency) and the media was removed. Plates were transferred to a -18 °C freezer. Plates were thawed and SYBR Safe DNA Gel Stain (final concentration 1/10,000) diluted in lysis buffer (as above) was added. Fluorescence was read at 490 nm excitation/ 520 nm emission on a FLUOstar Optima fluorescence plate reader. […]

[3] = system: human hepatoma cells (Huh7); assay: Human hepatoma viability assay (CellTiter-Blue); type: cell-based; conditions: Homo sapiens, Huh-7; 48 h, Huh7; read-out: IC50, human hepatoma inhibition (viability)
Description: Huh7 hepatoma viability assays were conducted in the same manner as the P. berghei assays, with metabolic capacity (indicating viability) measured with a fluorescence microplate reader after incubation with CellTiter-Blue® (Promega) for 3 h.
Appendix Fraser/Curtis et al. […]
Human Hepatoma Viability Assays:
The Huh7 hepatoma cell line (ATCC) was maintained under routine culture conditions in Dulbecco's Modified Eagle Medium (DMEM) containing 3.7 g/L NaHCO3 supplemented with 10% foetal bovine serum (FBS), 100 units/mL penicillin, and 100 μg/mL streptomycin at 37 °C in a humidified 5% CO2 incubator.
Viability assays were performed in parallel to the P. berghei growth inhibition. 10,000 Huh7 cells were seeded in 96-well and dark-sided microplates (Greiner Bio One) and cultured at 37°C, 5% CO2 and 80% humidity. The next day, the media was replaced with compounds or solvent controls (DMSO) serially diluted in culture media. Media was partially replaced with new drug dilutions over the following two days. After 48 hours, CellTiter-Blue® (Promega) was added according to the manufacturer’s instructions and incubated for 3 hours. Fluorescence intensity was measured with 530/25 ex and 590/20 em in a Synergy HTX plate reader (Agilent).

P. berghei liver stages = assay: Plasmodium berghei liver stage growth inhibition assay (luminescence, in Huh7 cells); conditions: for P. berghei liver stage growth, dose-response data points (Figure 3A): replicate data points

How did the IC50 [1] turn out when COc1cc(NC(C)CCCN)c2ncccc2c1 (stereo not shown) [Primaquine, primaquine, reference compound] was run?
The IC50 was 10.6 µM.

What about the IC50 [2] of the same compound?
The IC50 was 41.8 µM.

What about the IC50 [3] of the same compound?
The IC50 was 18.4 µM.

What about the “P. berghei liver stage growth, dose-response data points (Figure 3A)” value (shortened to “P. berghei liver stage growth”) (P. berghei liver stages; 0.015241580 uM) of the same compound?
The value was 93.67 and 95.48 and 110.9 and 122 and 82.26 and 95.7 and 96.97 and 92.94 and 110.1.

What about the “P. berghei liver stage growth” value (P. berghei liver stages; 0.045724740 uM) of the same compound?
Its value is 108.1 and 96.38 and 105.4 and 91.89 and 98.42 and 97.49 and 70.73 and 69.42 and 92.75.

And the “P. berghei liver stage growth” value (P. berghei liver stages; 0.137174210 uM)?
Its value is 105.4 and 121.7 and 113.6 and 95.08 and 83.35 and 110.5 and 75.51 and 85.25 and 113.8.

What about the “Figure 3E dose-response value (replicates)” value (“Figure 3E dose-response value” for short) (P. berghei liver stages; 0.212890630 uM) of the same compound?
The value was 110.2 and 105.1 and 104.6 and 108.5 and 84.79 and 105.5 and 104.2 and 95.71 and 86.14 and 93.88 and 93.04.

And the “P. berghei liver stage growth” value (P. berghei liver stages; 0.411522630 uM)?
The value was 105.4 and 115.4 (2×) and 82.34 and 95.47 and 107.6 and 82.44 and 82.72 and 115.2.

And the “Figure 3E dose-response value” value (P. berghei liver stages; 0.425781250 uM)?
Its value is 102.3 and 92.15 and 106 and 104.8 and 98.19 and 93.53 and 98.84 and 93.27 and 90.28.

What about the “Figure 3E dose-response value” value (P. berghei liver stages; 0.851562500 uM) of the same compound?
Its value is 96.31 and 95.61 and 102.1 and 104.8 and 94.91 and 106 and 91.69 and 92.32 and 88 and 100 and 90.58 and 89.08.

And the “P. berghei liver stage growth” value (P. berghei liver stages; 1.234567900 uM)?
The value was 95.48 and 107.2 and 78.84 and 85.44 and 95.31 and 57.42 and 69.42 and 85.07.

What about the “Figure 3E dose-response value” value (P. berghei liver stages; 1.703125000 uM) of the same compound?
The value was 88.27 and 98.56 and 102.4 and 105.9 and 83.84 and 86.74 and 92.09 and 88.62.

What about the “Figure 3E dose-response value” value (P. berghei liver stages; 3.406250000 uM) of the same compound?
Its value is 97.54 and 95.04 and 93.86 and 98.31 and 97.98 and 92.53 and 88.24 and 88.2 and 80.51 and 79.64 and 66.71 and 72.77.

What about the “P. berghei liver stage growth” value (P. berghei liver stages; 3.703703700 uM) of the same compound?
Its value is 52.94 and 55.66 and 62.9 and 27.87 and 29.81 and 24.61 and 21.71 and 31.37 and 31.18.

What about the “Figure 3E dose-response value” value (P. berghei liver stages; 6.812500000 uM) of the same compound?
The value was 52.26 and 84.6 and 91.44 and 91.35 and 88.74 and 72.33 and 82.87 and 73.41 and 70.7 and 48.65 and 46.53 and 51.73.

What about the “P. berghei liver stage growth” value (P. berghei liver stages; 11.111111100 uM) of the same compound?
Its value is 2.262 and -2.262 (2×) and 1.062 and 1.606 and 2.072 and 3.062 and 2.968 and 4.186.

What about the “Figure 3E dose-response value” value (P. berghei liver stages; 13.625000000 uM) of the same compound?
Its value is 24.3 and 46.65 and 52.62 and 55.32 and 16.73 and 22.67 and 37.29 and 44.07 and 37.02 and 20.99 and 23.94 and 27.39.

What about the “Figure 3E dose-response value” value (P. berghei liver stages; 27.250000000 uM) of the same compound?
The value was 0.8156 and 1.015 and 0.9272 and 0.814 and 1.004 and 2.12 and 0.3528 and 0.5411 and 2.525 and 0.8793 and 0.07968 and 0.8298.

And the “P. berghei liver stage growth” value (P. berghei liver stages; 33.333333300 uM)?
Its value is -1.357 (3×) and 0.4403 and 0.2849 and 0.3626 and 1.093 and 1.749 and 0.9997.

And the “P. berghei liver stage growth” value (P. berghei liver stages; 100.000000000 uM)?
The value was -3.167 and -0.4525 and 0.4525 and -0.0259 and 0.0518 (2×) and -0.03124 (2×) and 0.5311.

And the “Figure 3E dose-response value” value (P. berghei liver stages; 109.000000000 uM)?
The value was 3.02 and 0.4007 and 0.2308 and 0.4951 and 3.634 and 2.894 and 0.4747 and 1.134 and 1.25 and 3.638 and 3.687 and 3.498.

What about the IC50 (P. berghei liver stages; Plasmodium berghei, Huh-7, 48 h, read-out: IC50, P. berghei liver stage growth inhibition) of the same compound?
The IC50 was 2.9 µM.
